Broadly, the GI50 is the concentration at which growth is held to half of that of the control.

Series [1] has as its system CYP1A1 protein expression in MCF-7 cells. The series is described as follows: Western blot of CYP1A1 protein, MCF-7 lysates. In kind it is cell-based, human. Particulars: 1 μM, 24 h. On the procedure:
(§1) Whole cell lysates were prepared for examination of CYP1A1 protein expression from untreated MCF-7, IGROV-1 and HCT 116 cultures and following exposure of cells to compounds 1, 2, 2a, 2b, 3, 3a, 3b, 4, 4a and 4b. Following protein determination (n=3, [Bradford, 1976]) and addition of sample buffer, samples were boiled at 95°C for 5 min and solubilised proteins (50 μg) were separated by sodium dodecyl sulphate (SDS) polyacrylamide gel (10%) electrophoresis. Proteins were electroblotted to polyvinylidene difluoride (PVDF) membranes and probed for CYP1A1 protein with polyclonal antiserum specific for human CYP1A1/1A2 (Gentest Corporation). Secondary antibody was conjugated to alkaline phosphatase, and CYP1A1 was detected following brief (<10 min) incubation with bromochloroindolyl phosphate and nitro-blue tetrazolium in alkaline phosphatase buffer. Molecular weight markers and a positive control of recombinant CYP1A1 (Gentest Corporation), included in all blots, confirmed detection of 52 kDa CYP1A1 protein.

For series [2], the system named is NCI-H226. The series is described as follows: NCI in vitro cytotoxicity assay (SRB), NCI-H226. It counts as cell-based. Particulars: Homo sapiens, 48 h exposure, sulforhodamine B assay, mean graph, read-out: Log10 GI50 (NCI-H226) (converted). On the procedure:
(§2) Cell culture and drug application procedures have been described previously ([Boyd and Paull, 1995]). Briefly, cell lines were inoculated into a series of 96-well microtiter plates, with varied seeding densities depending on growth characteristics of each cell line. Following a 24 h drug free incubation, test agents were added at five 10-fold dilutions with a maximum concentration of 100 μM. Cellular protein levels were determined after 48 h drug exposure by sulphorhodamine B colorimetry.
(In general: In SRB staining, fixed cells bind dye roughly in proportion to their protein.)

Series [3] deals with KM12. Put plainly: NCI in vitro cytotoxicity assay (SRB), KM12. In kind it is cell-based. The settings on record: Homo sapiens, 48 h exposure, sulforhodamine B assay, mean graph, read-out: Log10 GI50 (KM12) (converted). On the procedure:
as §2

The subject of series [4] is SF-268. Put plainly: NCI in vitro cytotoxicity assay (SRB), SF-268. In kind it is cell-based. The settings on record: Homo sapiens, 48 h exposure, sulforhodamine B assay, mean graph, read-out: Log10 GI50 (SF-268) (converted). On the procedure:
as §2

Series [5] has as its system SF-539. The series is described as follows: NCI in vitro cytotoxicity assay (SRB), SF-539. Particulars: Homo sapiens, 48 h exposure, sulforhodamine B assay, mean graph, read-out: Log10 GI50 (SF-539) (converted). It counts as cell-based. On the procedure: as §2
In series [6] the test system is SK-MEL-2. Put plainly: NCI in vitro cytotoxicity assay (SRB), SK-MEL-2. The settings on record: Homo sapiens, 48 h exposure, sulforhodamine B assay, mean graph, read-out: Log10 GI50 (SK-MEL-2) (converted). It counts as cell-based. On the procedure:
as §2

For series [7], the system named is 786-0. Put plainly: NCI in vitro cytotoxicity assay (SRB), 786-0. In kind it is cell-based. The settings on record: Homo sapiens, 48 h exposure, sulforhodamine B assay, mean graph, read-out: Log10 GI50 (786-0) (converted). On the procedure: as §2
Series [8] deals with ACHN. The series is described as follows: NCI in vitro cytotoxicity assay (SRB), ACHN. In kind it is cell-based. The settings on record: Homo sapiens, 48 h exposure, sulforhodamine B assay, mean graph, read-out: Log10 GI50 (ACHN) (converted). On the procedure: as §2
For series [9], the system named is SN12C. Put plainly: NCI in vitro cytotoxicity assay (SRB), SN12C. It counts as cell-based. Particulars: Homo sapiens, 48 h exposure, sulforhodamine B assay, mean graph, read-out: Log10 GI50 (SN12C) (converted). On the procedure:
as §2

In series [10] the test system is UO 31. Put plainly: NCI in vitro cytotoxicity assay (SRB), UO 31. It counts as cell-based. Particulars: Homo sapiens, 48 h exposure, sulforhodamine B assay, mean graph, read-out: Log10 GI50 (UO 31) (converted). On the procedure: as §2
The test system of series [11] is MDA-MB-435. The series is described as follows: NCI in vitro cytotoxicity assay (SRB), MDA-MB-435. In kind it is cell-based. The settings on record: Homo sapiens, 48 h exposure, sulforhodamine B assay, mean graph, read-out: Log10 GI50 (MDA-MB-435) (converted). On the procedure: as §2
For series [12], the system named is MDA-N. Put plainly: NCI in vitro cytotoxicity assay (SRB), MDA-N. In kind it is cell-based. The settings on record: Homo sapiens, 48 h exposure, sulforhodamine B assay, mean graph, read-out: Log10 GI50 (MDA-N) (converted). On the procedure:
as §2

On the set-up of series [13]: method as in Bradshaw et al, 2002. Particulars: in vivo, compound 2 regenerated from lysylamide prodrug compound 2b; ref Bradshaw et al, 2002; cited from earlier work.
Series [14] has as its system CYP1A1 protein expression in IGROV-1 cells. The series is described as follows: Western blot of CYP1A1 protein, IGROV-1 lysates. In kind it is cell-based, human. Particulars: 10 nM to 10 μM, 24 h, result not shown. On the procedure: as §1
(In western blotting, separated proteins are transferred to a membrane and probed.)

For series [15], the system named is CYP1A1 activity (EROD) in IGROV-1 cells. Put plainly: EROD activity in homogenates of treated IGROV-1 cells. In kind it is cell-based, human. Particulars: IGROV-1 cells treated 24 h; biphasic dose response. On the procedure: A sensitive and rapid fluorometric assay was used to measure EROD activity ([Burke et al, 1994]). Incubation mixtures (total 1 ml) consisted of 100 mM Tris-HCl (pH 7.4), 50 μM MgCl2, 100 μM 7-ethoxyresorufin and 100 μl cell homogenate. Homogenates were prepared following treatment of cells for 24 h with compounds 1, 2, 2a, 2b, 3, 3a, 3b, 4, 4a and 4b or vehicle alone and protein content determined (n=3). Thus induction of ethoxyresorufin O-deethylation by agents under study, catalysed by CYP1A1 activity, could be determined. Alternatively, microsomes expressing recombinant CYP1A1 (0.1 mg ml^−1) provided the enzyme source for EROD catalysis, in the presence or absence of drug, in order to determine inhibition of CYP1A1 activity by compounds 1, 2, 2a, 2b, 3, 3a, 3b, 4, 4a and 4b. Incubation mixtures were pre-incubated for 5 min at 37°C before initiation of reaction by addition of NADPH (500 μM). Following further incubations at 37°C (30 min for cell homogenates, 15 min for CYP1A1 microsomes), reactions were terminated by addition of 3 ml ice-cold acetonitrile. […] Fluorescence was read on a Perkin-Elmer LS-5 luminescence spectrometer (excitation, 530 nm; emission 585 nm). Estimation of resorufin reaction product (pmoles mg^−1 protein, pmoles 100 μg^−1 microsomes), as a measure of CYP1A1 activity, was determined following performance of a resorufin standard curve.

Series [16] deals with RPMI-8226. Put plainly: NCI in vitro cytotoxicity assay (SRB), RPMI-8226. It counts as cell-based. The settings on record: Homo sapiens, 48 h exposure, sulforhodamine B assay, mean graph, read-out: Log10 GI50 (RPMI-8226) (converted). On the procedure: as §2
The test system of series [17] is OVCAR-4. The series is described as follows: NCI in vitro cytotoxicity assay (SRB), OVCAR-4. In kind it is cell-based. Particulars: Homo sapiens, 48 h exposure, sulforhodamine B assay, mean graph, read-out: Log10 GI50 (OVCAR-4) (converted). On the procedure: as §2
Series [18] relates to breast and ovarian xenografts. The arrangement: method as in Bradshaw et al, 2002. The settings on record: in vivo; ref Bradshaw et al, 2002; cited from earlier work.

In the case of `Cc1cc(-c2nc3cc(F)ccc3s2)ccc1N` [Compound 2, 2-(4-Amino-3-methylphenyl)-5-fluorobenzothiazole], the “CYP1A1 protein expression (Western blot)” value in series [1] is given as “induced”. In addition, the GI50 was less than 0.01 µM in series [2]; 69.2 µM in [3]; 58.9 µM in series [4]; 27.5 µM in series [5]; greater than 100 µM in series [6]; 24 µM in [7]. The GI50 in series [8] is 30.2 µM; in series [9], 74.1 µM; in series [10], 85.1 µM; in series [11] it was greater than 100 µM; in series [12] it was greater than 100 µM. Further, the “Persistence of plasma concentrations sufficient for cytocidal activity against human mammary carcinoma cells” value in series [13] was greater than 6 h.

In the case of `Cc1cc(-c2nc3cc(F)ccc3s2)ccc1NC(=O)[C@@H](N)CCCCN` [Compound 2b], the entries for the “CYP1A1 protein expression (Western blot)” value in series [1] and in series [14] were “induced” and “clearly observed”, respectively. Further, the “Concentration giving maximum induction of EROD activity” value in series [15] turned out to be 1000 nM. The 50% growth inhibitory concentration (GI50) in series [16] is 2.45 µM; in [2] it was 0.155 µM; in series [4], 6.76 µM; in series [5] it was 14.1 µM; in [6], 2.51 µM; in series [17], 2.04 µM. The GI50 in series [7] is 4.07 µM; in [8] it was 6.03 µM; in series [9], 12.3 µM; in series [10] it was 3.09 µM; in series [11], 1.91 µM. The “Growth of breast and ovarian xenografts” value in [18] is “suppresses significantly”.

The record behind these values is paper PMC2375326, “In vitro evaluation of amino acid prodrugs of novel antitumour 2-(4-amino-3-methylphenyl)benzothiazoles” (British Journal of Cancer, 2002).
